Where a SMILES comes first, the peptide text is derived from it. [ ]: non-standard residue; d: D form. The star is where a group is joined. Aib = CC(C)(N)C(=O)O; tBu = CC(C)(C)*
Experiments:
[1] = test system: enzyme derived from Sphingobacterium sp. strain FERM BP-8124 (SP-Sepharose HP fraction enzyme); assay: Enzyme substrate specificity (11), (12): peptide production; type: biochemical; parameters: key to Produced peptide (Table 15-1) / Produced peptide (Table 15-3) / Produced peptide (Table 15-4): +: those peptides for which production was confirmed but which were unable to be quantified due to the absence of a standard; a trace amount; conditions: carboxy component 100 mM, 0.33 units enzyme, pH 9.0, 25° C., 1.5 hours; for Produced peptide (Table 15-2): L-Gln 150 mM
Excerpt: Substrate specificity was examined for enzyme derived from Sphingobacterium sp. strain FERM BP-8124 (Depositary institution: the independent administrative corporation, National Institute of Advanced Industrial Science and Technology, International Patent Organism Depositary, Address of depositary institution: Chuo Dai-6, 1-1 Higashi 1-Chome, Tsukuba-shi, Ibaraki-ken, Japan, International deposit date: […] The amounts of various peptides formed in this reaction are shown in Table 15. The “+” mark indicates those peptides for which production was confirmed but which were unable to be quantified due to the absence of a standard, while “tr” indicates a trace amount. Furthermore, Tween-80 was added to the reaction system to a final concentration of 0.1% in the case of using L-Tyr-OMe. In addition, hydrochloride salts were used for all carboxy components. Substrate specificity with respect to oligopeptide production was examined for enzyme derived from Sphingobacterium sp. strain FERM BP-8124 (Depositary institution: the independent administrative corporation, National Institute of Advanced Industrial Science and Technology, International Patent Organism Depositary, Address of depositary institution: Chuo Dai-6, 1-1 Higashi 1-Chome, Tsukuba-shi, Ibaraki-ken, Japan, International deposit date: […] The amounts of each oligopeptide formed in this reaction are shown in Table 16. Furthermore, hydrochloride salts were used for all the carboxy components.

[2] = test system: peptide-forming enzyme (Mono S fraction enzyme); assay: Enzyme substrate specificity (1)-(10), (13), (14): peptide production; type: biochemical, Empedobacter brevis; parameters: key to Formed peptide: +: those peptides for which production was confirmed but which were unable to be quantified due to the absence of a standard; a trace amount; conditions: for L-Ala-L-Gln formed: 200 mM L-glutamine, 2 hours
Procedure: Ester specificity was examined in the case of using L-amino acid ester for the carboxy component. 2 μl of the same enzyme fraction as used in Example 5 was added to 100 μl of 100 mM borate buffer (pH 9.0) containing the carboxy components indicated in Table 4 at 100 mM, 200 mM L-glutamine and 10 mM EDTA, and allowed to react at 25° C. for 2 hours. HCl represents hydrochloride in Table 4.
Peptide production was examined in the case of using L-alanine methyl ester for the carboxy component and using various L-amino acids for the amine component.
Peptide production was examined in the case of using various types of L-amino acid methyl esters for the carboxy component and using L-glutamine for the amine component. 2 μl of the same enzyme fraction as used in Example 5 was added to 100 μl of 100 mM borate buffer (pH 9.0) containing the L-amino acid methyl ester hydrochloride salts (AA-OMe.HCl) shown in Table 6 at 100 mM, 150 mM L-glutamine and 10 mM EDTA, and allowed to react at 25° C. for 3 hours. […] Furthermore, Tween-80 was added to the reaction system to a final concentration of 0.1% in the case of using L-Trp-OMe and L-Tyr-OMe.
Peptide production was examined in the case of using various L-amino acid methyl esters for the carboxy component and various L-amino acids for the amine component. 2 μl of the same enzyme fraction as used in Example 5 was added to 100 μl of 100 mM borate buffer (pH 9.0) containing the L-amino acid methyl ester hydrochloride salts (AA-OMe.HCl) shown in Table 7 at 100 mM, the L-amino acids shown in Table 7 at 150 mM and 10 mM EDTA, and allowed to react at 25° C. for 3 hours. The “tr” indicates a trace amount. Furthermore, Tween-80 was added to the reaction system to a final concentration of 0.1% in the case of using L-Trp-OMe.
Peptide production was examined in the case of using the L or D forms of various amino acid methyl esters for the carboxy component, and the L or D forms of various amino acids for the amine component. 2 μl of the same enzyme fraction as used in Example 5 was added to 100 μl of 100 mM borate buffer (pH 9.0) containing the various amino acid methyl ester hydrochloride salts (AA-OMe HCl) shown in Table 8 at 100 mM, the various amino acids shown in Table 8 at 150 mM and 10 mM EDTA, and allowed to react at 25° C. for 3 hours. The “tr” indicates a trace amount.
Peptide production was examined using various L-amino acid amides for the carboxy component, and various L-amino acids for the amine component. 2 μl of the same enzyme fraction as that used in Example 5 was added to 100 μl of 100 mM borate buffer (pH 9.0) containing the L-amino acid amide hydrochloride salt (M-NH2.HCl) shown in Table 9 at 100 mM, the L-amino acids shown in Table 9 at 150 mM and 10 mM EDTA, and allowed to react at 25° C. for 3 hours.
Peptide production was examined in the case of using various L-alanine methyl esters for the carboxy component and C-protected L-amino acids for the amine component. 2 μl of the same enzyme fraction as used in Example 5 was added to 100 μl of 100 mM borate buffer (pH 9.0) containing the L-alanine methyl ester hydrochloride hydrochloride salt (Ala-OMe.HCl) shown in Table 10 at 100 mM, the L-amino acid amide hydrochloride salts shown in Table 10 at 150 mM and 10 mM EDTA, and allowed to react at 25° C. for 3 hours.
Peptide production was examined in the case of using various amino acid methyl esters for the carboxy component and methylamine for the amine component. 2 μl of the same enzyme fraction as used in Example 5 was added to 100 μl of 100 mM borate buffer (pH 9.0) containing the amino acid methyl ester hydrochloride salt (M-OMe.HCl) shown in Table 11 at 100 mM, the methylamine shown in Table 11 at 150 mM and 10 mM EDTA, and allowed to react at 25° C. for 3 hours.
Peptide production was examined in the case of using […] for the carboxy component or β-amino acid for the amine component.

[3] = 100 mM L-alanine methyl ester hydrochloride, L-amino acid 150 mM, pH 9.0, 25° C., 3 hours
[4] = L-amino acid ester 100 mM, peptide (amine component) 150 mM, pH 9.0, 25° C., 3 hours
[5] = L-amino acid methyl ester hydrochloride 100 mM, 150 mM L-glutamine, pH 9.0, 25° C., 3 hours
[6] = L or D amino acid methyl ester hydrochloride 100 mM, L or D amino acid 150 mM, pH 9.0, 25° C., 3 hours
[7] = L-amino acid methyl ester hydrochloride 100 mM, L-amino acid 150 mM, pH 9.0, 25° C., 3 hours
[8] = β-amino acid ester or β-amino acid, carboxy component 100 mM, amine component 150 mM, pH 9.0, 25° C., 3 hours
[9] = carboxy component 100 mM, amine component 150 mM, 0.1 unit enzyme, 25° C., reaction time 3 hr
[10] = carboxy component 100 mM, pH 9.0, 25° C.

C[C@H](N)C(=O)N[C@@H](C)C(=O)O [L-Ala-L-Ala] (H-Ala-Ala-OH)
Produced peptide (Table 15-1) ([1]; amine component 150 mM): 13.1 mM | Produced peptide (Table 16, oligopeptide) ([1]; amine component 150 mM): 25.6 mM | Formed peptide [2, 3]: 25.4 mM | Produced peptide [2, 4]: 28.7 mM

CNC(=O)CN [Gly-methylamine]
Produced peptide (Table 15-4) ([1]; amides and methylamine, amine component 150 mM): 1.0 mM | Formed peptide ([2]; amino acid methyl ester hydrochloride 100 mM, methylamine 150 mM, pH 9.0, 25° C., 3 hours): 1.1 mM

L-Ala-Gly-Gly
Produced peptide (Table 16, oligopeptide) ([1]; amine component 150 mM): 33.7 mM | Produced peptide [2, 4]: 41.7 mM

NC(=O)CC[C@H](NC(=O)[C@@H](N)CC(=O)O)C(=O)O [α-L-Asp-L-Gln] (H-Asp-Gln-OH)
Produced peptide (Table 15-2) [1]: 0.05 mM | Formed peptide [2, 5]: tr

NC(=O)CC[C@H](NC(=O)[C@@H](N)CCCN=C(N)N)C(=O)O [L-Arg-L-Gln] (H-Arg-Gln-OH)
Produced peptide (Table 15-2) [1]: 17.2 mM | Formed peptide [2, 5]: 7.1 mM

CC(C)[C@H](NC(=O)[C@H](C)N)C(=O)O [L-Ala-L-Val] (H-Ala-Val-OH)
Produced peptide (Table 15-1) ([1]; amine component 150 mM): 10.9 mM | Formed peptide [2, 3]: 20.8 mM

C[C@@H](N)C(=O)N[C@@H](CO)C(=O)O [D-Ala-L-Ser] (H-[dA]-Ser-OH)
Produced peptide (Table 15-1) ([1]; amine component 150 mM): 24.1 mM | Formed peptide [2, 6]: 20.3 mM

NC(N)=NCCC[C@H](N)C(=O)N[C@@H](Cc1ccccc1)C(=O)O [L-Arg-L-Phe]
Produced peptide (Table 15-3) ([1]; amine component 150 mM): tr | Formed peptide [2, 7]: 1.9 mM

NC(=O)CC[C@H](NC(=O)[C@@H]1CCCN1)C(=O)O [L-Pro-L-Gln] (H-Pro-Gln-OH)
Produced peptide (Table 15-2) [1]: 1.8 mM | Formed peptide [2, 5]: 2.2 mM

CC[C@H](C)[C@H](N)C(=O)N[C@@H](CCC(N)=O)C(=O)O [L-Ile-L-Gln] (H-Ile-Gln-OH)
Produced peptide (Table 15-2) [1]: 6.4 mM | Formed peptide [2, 5]: 8.4 mM

L-Ala-L-Phe-L-Ala
Produced peptide (Table 16, oligopeptide) ([1]; amine component 150 mM): 24.8 mM | Produced peptide [2, 4]: 49.7 mM

CC(C)C[C@H](N)C(=O)N[C@@H](CCC(N)=O)C(=O)O [L-Leu-L-Gln] (H-Leu-Gln-OH)
Formed peptide [2, 5]: +

C[C@H](N)C(=O)N[C@@H](Cc1ccc(Cl)cc1)C(=O)O [H-Ala-Cl-F-Phe-OH]
Produced peptide ([2]; carboxy component 40 mM, amine component 40 mM, 0.1 unit enzyme, 25° C., reaction time 3 hr): 20.8 mM

C[C@H](O)[C@@H](N)C(=O)N[C@@H](CO)C(=O)O [D-Thr-L-Ser] (H-[dT]-Ser-OH)
Formed peptide [2, 6]: 1.0 mM

CC(N)C(=O)NCCC(=O)O (stereo not drawn) [Ala-β-Ala]
Formed peptide [2, 8]: 7.7 mM

CSCC[C@H](NC(=O)[C@@H](N)CCSC)C(=O)O [L-Met-L-Met] (H-Met-Met-OH)
Produced peptide (Table 15-3) ([1]; amine component 150 mM): 28.4 mM

N[C@H](CO)C(=O)N[C@H](CO)C(=O)O [D-Ser-D-Ser] (H-[dS]-[dS]-OH)
Formed peptide [2, 6]: 2.5 mM

CC(C)(N)C(=O)N[C@@H](Cc1ccccc1)C(=O)O [H-Aib-Phe-OH] (H-[Aib]-Phe-OH)
Produced peptide [2, 9]: 17.2 mM

C[C@@H](O)[C@H](N)C(=O)NCCC(=O)O [Thr-β-Ala]
Formed peptide [2, 8]: 3.2 mM

C[C@@H](O)[C@H](N)C(=O)N[C@H](CO)C(=O)O [L-Thr-D-Ser] (H-Thr-[dS]-OH)
Formed peptide [2, 6]: 6.9 mM

C[C@@H](O)[C@H](N)C(=O)NC(CC(=O)O)c1ccccc1 (stereo partly drawn) [Thr-β-Phe]
Formed peptide [2, 8]: 1.4 mM

NC(=O)C[C@H](N)C(=O)N[C@@H](CCC(=O)O)C(=O)O [L-Asn-L-] (H-Asn-Glu-OH)
Formed peptide [2, 7]: 10.2 mM

CC(C)(N)C(=O)N[C@@H](CCC(N)=O)C(=O)O [H-Aib-H-Gln-OH] (H-[Aib]-Gln-OH)
Produced peptide [2, 9]: 18.8 mM

NCC(=O)NCCC(=O)O [Gly-β-Ala]
Formed peptide [2, 8]: 2.2 mM

CC(C)OC(=O)[C@H](C)N.Cl [L-Alanine isopropyl ester.HCl]
L-Ala-L-Gln formed [2, 10]: 78.9 mM

CCOC(=O)[C@H](C)N.Cl [L-Alanine ethyl ester.HCl]
L-Ala-L-Gln formed [2, 10]: 91.5 mM

NCC(=O)NC(CC(=O)O)c1ccccc1 (stereo not drawn) [Gly-β-Phe]
Formed peptide [2, 8]: 0.4 mM

C[C@@H](O)[C@H](N)C(=O)N[C@@H](CO)C(=O)O [L-Thr-L-Ser] (H-Thr-Ser-OH)
Formed peptide [2, 7]: 58.2 mM

C[C@H](N)C(=O)N[C@H](CCC(N)=O)C(=O)O [L-Ala-D-Gln] (H-Ala-[dQ]-OH)
Formed peptide [2, 6]: 0.3 mM

CSCC[C@H](NC(=O)[C@@H](N)Cc1cnc[nH]1)C(=O)O [L-His-L-Met] (H-His-Met-OH)
Formed peptide [2, 7]: 6.5 mM

CSCC[C@H](N)C(=O)N[C@@H](CO)C(=O)O [L-Met-L-Ser] (H-Met-Ser-OH)
Produced peptide (Table 15-3) ([1]; amine component 150 mM): 25.3 mM

NC(=O)CC[C@H](NC(=O)CC[C@H](N)C(=O)O)C(=O)O [γ-L-Glu-L-Gln]
Formed peptide [2, 5]: +

C[C@H](N)C(=O)N[C@@H](COC(C)(C)C)C(=O)O [H-Ala-Ser(tBu)-OH] (H-Ala-Ser(tBu)-OH)
Produced peptide ([2]; carboxy component 100 mM, amine component 150 mM, 0.1 unit enzyme, 25° C., reaction time 2 hr): 48.8 mM

Reference: patent publication US20040204577A1, “Novel peptide-forming enzyme gene” (Ajinomoto Co., Inc., priority 2003, published 2004)
